In PMC4154469, “Extracellular gentamicin reduces the activity of connexin hemichannels and interferes with purinergic Ca^2+ signaling in HeLa cells” (Frontiers in Cellular Neuroscience, 2014):

Assays:
[1] = biological target: T1, connexin45 (mCx45) hemichannel (Mus musculus, UniProt P28229); assay: ethidium uptake in HeLa-mCx45 cells, […] streptomycin; format: cell-based
T1 construct: gene Gjc1; mouse Cx45 (NM_001159383.1) stably expressed in HeLa cells

[2] = biological target: T2, connexin43 (mCx43) hemichannel (Mus musculus, UniProt P23242); assay: ethidium uptake in HeLa-mCx43 cells, […] streptomycin; format: cell-based
T2 construct: gene Gja1; mouse Cx43 (NM_010288.3) stably expressed in HeLa cells
T2 sequence (P23242 2-382): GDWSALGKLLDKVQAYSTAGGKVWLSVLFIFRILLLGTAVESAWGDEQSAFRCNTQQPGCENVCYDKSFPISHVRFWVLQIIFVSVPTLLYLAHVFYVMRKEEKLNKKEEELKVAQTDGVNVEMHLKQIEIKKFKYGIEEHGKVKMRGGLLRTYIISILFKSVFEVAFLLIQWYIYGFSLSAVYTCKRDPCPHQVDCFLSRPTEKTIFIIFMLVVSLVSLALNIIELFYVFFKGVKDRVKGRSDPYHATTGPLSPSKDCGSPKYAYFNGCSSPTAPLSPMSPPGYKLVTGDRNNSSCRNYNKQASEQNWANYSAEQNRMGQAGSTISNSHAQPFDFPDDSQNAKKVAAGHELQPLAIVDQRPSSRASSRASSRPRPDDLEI

T1 sequence (P28229 whole entry): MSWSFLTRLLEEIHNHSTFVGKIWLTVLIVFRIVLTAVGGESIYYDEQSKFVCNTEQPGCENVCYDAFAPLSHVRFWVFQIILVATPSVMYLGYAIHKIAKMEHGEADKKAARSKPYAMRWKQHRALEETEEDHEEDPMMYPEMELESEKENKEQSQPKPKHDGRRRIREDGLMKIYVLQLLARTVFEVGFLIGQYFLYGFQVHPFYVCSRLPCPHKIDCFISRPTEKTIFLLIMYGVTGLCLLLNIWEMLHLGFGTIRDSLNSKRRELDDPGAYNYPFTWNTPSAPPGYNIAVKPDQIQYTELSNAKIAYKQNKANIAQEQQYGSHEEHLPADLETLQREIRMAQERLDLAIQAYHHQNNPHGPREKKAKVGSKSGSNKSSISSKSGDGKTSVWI

With `[H]/N=C(/N)N[C@H]1[C@H](O)[C@@H](O)[C@H](O[C@@H]2O[C@@H](C)[C@](O)(C=O)[C@H]2O[C@@H]2O[C@@H](CO)[C@H](O)[C@@H](O)[C@@H]2NC)[C@@H](N/C(N)=N\[H])[C@@H]1O` [streptomycin] the “ethidium uptake in HeLa-mCx45 cells, 200 μM streptomycin” value [1] was “In HeLa-mCx45 cells, Etd uptake was reduced to values below the ones recorded under control condition” and the “ethidium uptake in HeLa-mCx43 cells, 200 μM streptomycin” value [2] was “also inhibited the Etd uptake of HeLa-rCx26 (Figures 2E,F), -mCx43 and -mCx45 cells in DCFS”.
